Measurements from ChEMBL document CHEMBL4376809, “Discovery of a Potent and Selective Fragment-like Inhibitor of Methyllysine Reader Protein Spindlin 1 (SPIN1)” (J Med Chem, 2019).
pIC50, pKd: −log10 of the molar value. Each block holds one molecule with its values, some of them ahead of it. Activity calls are given as the source filed them. The rule behind the calls is not given here. Non-standard residues stand in square brackets, D forms with d. Residues, ends and D or L forms follow the SMILES beside them. *: point of attachment. Benzoyl(4-tBu) = CC(C)(C)c1ccc(C(=O)*)cc1; Lys(Et2) = CCN(CC)CCCC[C@H](N)C(=O)O

Experiments:
Spindlin-1 [1] = target: T1, Spindlin-1 (Homo sapiens, UniProt Q9Y657); test: biochemical
[2] = target: Histone-lysine N-methyltransferase EHMT1/EHMT2 (Homo sapiens) (UniProt Q9H9B1+Q96KQ7); test: Inhibition of human G9a catalytic domain/GLP catalytic domain in presence of SAM assessed as dissociation constant by isothermal calorimetry assay; assay type: protein assay
Spindlin-1 [3] = target: T1, Spindlin-1
Spindlin-1 [4] = target: T1, Spindlin-1; test: biochemical; remark: listed apart in the source
[5] = target: T2, E3 SUMO-protein ligase CBX4 (Homo sapiens, UniProt O00257); test: Inhibition of CBX4 (unknown origin) assessed as dissociation constant by isothermal titration calorimetry
T2 sequence (O00257 whole entry): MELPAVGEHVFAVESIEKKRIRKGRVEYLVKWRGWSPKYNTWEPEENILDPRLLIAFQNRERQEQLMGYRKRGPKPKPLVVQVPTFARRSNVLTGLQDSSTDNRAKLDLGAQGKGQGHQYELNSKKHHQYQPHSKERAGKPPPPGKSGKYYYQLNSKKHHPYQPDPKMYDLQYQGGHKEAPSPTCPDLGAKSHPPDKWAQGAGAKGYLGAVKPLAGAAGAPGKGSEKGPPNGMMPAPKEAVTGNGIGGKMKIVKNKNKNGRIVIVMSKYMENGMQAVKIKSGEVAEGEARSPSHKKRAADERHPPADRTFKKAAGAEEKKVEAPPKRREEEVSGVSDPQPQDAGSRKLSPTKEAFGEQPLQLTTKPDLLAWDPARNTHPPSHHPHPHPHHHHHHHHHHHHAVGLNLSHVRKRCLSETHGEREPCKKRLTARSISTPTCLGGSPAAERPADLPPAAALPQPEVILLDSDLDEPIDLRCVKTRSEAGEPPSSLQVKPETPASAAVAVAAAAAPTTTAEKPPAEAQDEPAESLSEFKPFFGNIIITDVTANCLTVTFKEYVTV

[6] = target: T3, Chromobox protein homolog 7 (Homo sapiens, UniProt O95931); test: Inhibition of CBX7 (unknown origin) assessed as dissociation constant by isothermal titration calorimetry
T3 sequence (O95931 whole entry): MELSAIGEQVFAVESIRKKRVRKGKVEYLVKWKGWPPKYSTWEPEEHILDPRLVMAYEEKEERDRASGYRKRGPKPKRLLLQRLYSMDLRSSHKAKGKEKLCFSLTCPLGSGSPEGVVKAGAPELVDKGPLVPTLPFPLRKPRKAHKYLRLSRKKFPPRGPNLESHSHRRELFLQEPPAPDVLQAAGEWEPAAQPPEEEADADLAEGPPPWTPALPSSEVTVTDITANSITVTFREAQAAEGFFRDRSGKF

Spindlin-1 [7] = target: T1, Spindlin-1; remark: listed apart in the source
Spindlin-1 [8] = target: T1, Spindlin-1; remark: listed apart in the source
Homo sapiens [9] = species on record: Homo sapiens; test: Inhibition of human MLL1/RBBP5/WDR5 trimeric complex up to 50 uM using Biot-H3 (1-25) as substrate and in presence of [3H]-SAM incubated for 1 hr by scintillation proximity assay
HEK-293T = test: Cytotoxicity against human 293T cells assessed as reduction in cell viability up to 30 uM incubated for 6 days by resazurin dye based fluorescence assay; details: 144 h
Spindlin-3 = Spindlin-3 (Homo sapiens, UniProt Q5JUX0); test: Inhibition of recombinant human N-terminal His6-tagged SPIN3 (27 to 258 residues) expressed in Escherichia coli BL21 (DE3) cells assessed as dissociation constant by isothermal titration calorimetry
Homo sapiens [10] = species on record: Homo sapiens; test: Binding affinity to JARID1 (unknown origin) assessed as induction of thermal shifts at 20 uM measured for 25 mins by SYPRO orange dye thermal shift assay
Homo sapiens [11] = species on record: Homo sapiens; test: Inhibition of human MLL3/ASH2L/RBBP5/WDR5/DPY30 pentameric complex up to 50 uM using Biot-H3 (1-25) as substrate and in presence of [3H]-SAM incubated for 1 hr by scintillation proximity assay
C2C12 = test: Cytotoxicity against mouse C2C12 cells assessed as reduction in cell viability up to 30 uM incubated for 6 days by resazurin dye based fluorescence assay; details: c2c12, 144 h
HFF-1 = test: Cytotoxicity against human HFF1 cells assessed as reduction in cell viability up to 30 uM incubated for 6 days by resazurin dye based fluorescence assay; details: hff-1, 144 h
Spindlin-2B = Spindlin-2B (Homo sapiens, UniProt Q9BPZ2); test: Inhibition of recombinant human N-terminal His6-tagged SPIN2B (45 to 258 residues) expressed in Escherichia coli BL21 (DE3) cells assessed as dissociation constant by isothermal titration calorimetry
Spindlin-4 = target: T4, Spindlin-4 (Homo sapiens, UniProt Q56A73); test: Inhibition of recombinant human N-terminal His6-tagged SPIN4 (36 to 249 residues) expressed in Escherichia coli BL21 (DE3) cells assessed as dissociation constant by isothermal titration calorimetry
T4 sequence (Q56A73 whole entry): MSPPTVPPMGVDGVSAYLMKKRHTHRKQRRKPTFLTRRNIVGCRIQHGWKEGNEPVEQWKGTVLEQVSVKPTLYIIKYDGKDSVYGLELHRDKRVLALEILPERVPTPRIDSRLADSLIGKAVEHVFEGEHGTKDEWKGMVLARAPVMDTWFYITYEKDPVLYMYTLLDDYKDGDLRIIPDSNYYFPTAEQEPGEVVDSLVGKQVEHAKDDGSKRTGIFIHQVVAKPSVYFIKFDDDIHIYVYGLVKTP

T1 sequence (Q9Y657 whole entry, the tested form may be a part): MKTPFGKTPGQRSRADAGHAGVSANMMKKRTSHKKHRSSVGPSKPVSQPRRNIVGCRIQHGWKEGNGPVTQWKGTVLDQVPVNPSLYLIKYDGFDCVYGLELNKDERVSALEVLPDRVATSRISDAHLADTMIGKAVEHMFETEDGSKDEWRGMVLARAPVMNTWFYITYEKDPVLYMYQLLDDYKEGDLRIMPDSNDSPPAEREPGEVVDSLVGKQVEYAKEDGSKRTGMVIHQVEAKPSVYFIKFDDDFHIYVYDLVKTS
Chain of Histone-lysine N-methyltransferase EHMT1/EHMT2 (Homo sapiens) (Q96KQ7 whole entry, looked up, the tested form may be a part): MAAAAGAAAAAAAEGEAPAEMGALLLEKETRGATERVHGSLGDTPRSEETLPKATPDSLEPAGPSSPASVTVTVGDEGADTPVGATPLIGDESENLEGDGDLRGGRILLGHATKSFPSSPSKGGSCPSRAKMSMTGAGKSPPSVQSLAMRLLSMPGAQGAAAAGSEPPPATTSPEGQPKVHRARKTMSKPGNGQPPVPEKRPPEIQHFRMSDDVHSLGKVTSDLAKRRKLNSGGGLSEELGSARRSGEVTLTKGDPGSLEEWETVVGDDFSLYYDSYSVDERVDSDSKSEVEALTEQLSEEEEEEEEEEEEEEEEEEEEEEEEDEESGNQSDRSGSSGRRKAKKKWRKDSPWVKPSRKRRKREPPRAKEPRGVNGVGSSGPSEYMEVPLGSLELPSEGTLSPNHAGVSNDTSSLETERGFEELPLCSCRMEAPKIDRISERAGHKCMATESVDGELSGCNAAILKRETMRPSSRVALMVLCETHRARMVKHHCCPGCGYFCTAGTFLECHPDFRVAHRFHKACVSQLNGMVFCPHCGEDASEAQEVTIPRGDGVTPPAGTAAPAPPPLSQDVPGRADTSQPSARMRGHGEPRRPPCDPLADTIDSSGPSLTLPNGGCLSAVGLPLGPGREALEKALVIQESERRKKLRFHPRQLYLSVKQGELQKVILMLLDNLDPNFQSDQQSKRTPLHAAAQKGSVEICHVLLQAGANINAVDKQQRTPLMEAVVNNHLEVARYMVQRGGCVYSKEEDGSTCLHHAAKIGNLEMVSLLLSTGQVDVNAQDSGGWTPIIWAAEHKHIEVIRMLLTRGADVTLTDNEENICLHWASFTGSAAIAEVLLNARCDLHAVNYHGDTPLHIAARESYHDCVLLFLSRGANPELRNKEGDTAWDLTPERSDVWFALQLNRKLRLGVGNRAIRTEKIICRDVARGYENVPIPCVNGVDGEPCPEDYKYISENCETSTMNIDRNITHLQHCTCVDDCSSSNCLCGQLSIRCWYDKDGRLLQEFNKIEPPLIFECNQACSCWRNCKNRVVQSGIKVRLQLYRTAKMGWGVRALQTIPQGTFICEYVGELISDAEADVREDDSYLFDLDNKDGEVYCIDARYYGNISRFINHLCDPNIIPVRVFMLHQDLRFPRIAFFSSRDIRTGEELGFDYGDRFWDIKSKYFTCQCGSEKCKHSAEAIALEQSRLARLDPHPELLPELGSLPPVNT
Chain of Histone-lysine N-methyltransferase EHMT1/EHMT2 (Homo sapiens) (Q9H9B1 whole entry, looked up, the tested form may be a part): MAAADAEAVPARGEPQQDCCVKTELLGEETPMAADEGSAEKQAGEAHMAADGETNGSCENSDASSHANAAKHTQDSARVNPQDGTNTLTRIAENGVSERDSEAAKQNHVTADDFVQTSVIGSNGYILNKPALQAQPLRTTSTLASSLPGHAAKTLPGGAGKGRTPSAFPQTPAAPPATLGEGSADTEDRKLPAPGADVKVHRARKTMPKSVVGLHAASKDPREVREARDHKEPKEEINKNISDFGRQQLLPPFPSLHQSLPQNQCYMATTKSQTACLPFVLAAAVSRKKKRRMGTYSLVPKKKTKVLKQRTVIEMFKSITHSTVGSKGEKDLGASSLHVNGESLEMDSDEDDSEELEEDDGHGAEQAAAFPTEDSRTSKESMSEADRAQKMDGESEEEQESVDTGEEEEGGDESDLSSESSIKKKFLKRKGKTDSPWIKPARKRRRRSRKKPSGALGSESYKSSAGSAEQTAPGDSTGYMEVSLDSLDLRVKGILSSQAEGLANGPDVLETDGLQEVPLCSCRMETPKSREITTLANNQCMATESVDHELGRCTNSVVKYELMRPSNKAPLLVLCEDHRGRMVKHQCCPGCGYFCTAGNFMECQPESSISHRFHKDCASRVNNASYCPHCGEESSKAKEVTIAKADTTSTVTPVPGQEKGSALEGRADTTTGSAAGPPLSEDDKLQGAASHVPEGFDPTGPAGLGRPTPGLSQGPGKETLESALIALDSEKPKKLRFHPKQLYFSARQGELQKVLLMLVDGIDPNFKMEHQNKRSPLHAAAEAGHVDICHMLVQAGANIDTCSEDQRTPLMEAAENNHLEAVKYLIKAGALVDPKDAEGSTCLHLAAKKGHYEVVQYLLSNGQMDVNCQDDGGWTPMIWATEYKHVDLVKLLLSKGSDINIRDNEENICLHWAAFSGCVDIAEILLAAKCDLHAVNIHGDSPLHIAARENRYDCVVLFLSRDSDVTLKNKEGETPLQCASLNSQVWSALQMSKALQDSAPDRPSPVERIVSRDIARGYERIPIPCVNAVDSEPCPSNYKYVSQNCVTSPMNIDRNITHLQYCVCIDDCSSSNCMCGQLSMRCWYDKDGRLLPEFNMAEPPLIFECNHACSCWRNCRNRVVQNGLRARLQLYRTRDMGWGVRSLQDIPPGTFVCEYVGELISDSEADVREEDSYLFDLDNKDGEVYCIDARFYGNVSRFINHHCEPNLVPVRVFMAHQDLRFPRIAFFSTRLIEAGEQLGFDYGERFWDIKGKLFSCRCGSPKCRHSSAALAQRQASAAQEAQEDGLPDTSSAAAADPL
Chain of Spindlin-3 (Q5JUX0 whole entry, the tested form may be a part): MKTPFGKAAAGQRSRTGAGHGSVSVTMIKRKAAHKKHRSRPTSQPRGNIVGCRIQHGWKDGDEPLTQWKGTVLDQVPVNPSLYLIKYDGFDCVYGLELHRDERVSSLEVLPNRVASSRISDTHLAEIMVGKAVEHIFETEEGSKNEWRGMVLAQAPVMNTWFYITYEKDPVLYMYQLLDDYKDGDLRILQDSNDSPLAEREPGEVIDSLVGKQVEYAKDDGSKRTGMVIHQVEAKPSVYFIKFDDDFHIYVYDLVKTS
Chain of Spindlin-2B (Q9BPZ2 whole entry, the tested form may be a part): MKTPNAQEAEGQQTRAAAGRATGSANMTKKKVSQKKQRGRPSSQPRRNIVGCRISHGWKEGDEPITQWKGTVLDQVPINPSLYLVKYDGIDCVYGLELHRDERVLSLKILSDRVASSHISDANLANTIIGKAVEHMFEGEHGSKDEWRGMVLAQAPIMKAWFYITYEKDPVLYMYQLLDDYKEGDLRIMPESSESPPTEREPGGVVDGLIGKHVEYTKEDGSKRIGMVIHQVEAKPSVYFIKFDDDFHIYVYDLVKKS

pIC50 (Spindlin-1 [1]): 6.47
inhibition [2]: inactive
pKd (Spindlin-1 [3]; read-out: Kd): 6.41
pIC50 (Spindlin-1 [4]): 6.13
Structure (SMILES): COc1c(CN)cc(CN)cc1OCCCN1CCCC1

pKd [5]: 7.03
pKd [6]: 7.01
Structure (SMILES): CCN(CC)CCCC[C@H](NC(=O)[C@H](CC(C)C)NC(=O)[C@H](C)NC(=O)[C@H](C)NC(=O)c1ccc(C(C)(C)C)cc1)C(=O)N[C@@H](CO)C(=O)OC ({Benzoyl(4-tBu)}-AAL[Lys(Et2)]S-OMe)

Kd (Spindlin-1 [3]): Not Active
IC50 (Spindlin-1 [7]): Not Active
IC50 (Spindlin-1 [8]): Not Active
Structure (SMILES): COc1c(CN)cc(C(N)=O)cc1OCCCN1Cc2ccccc2C1

inhibition (Homo sapiens [9]): inactive
inhibition [2]: inactive
pKd (Spindlin-3): 5.77 to 6.77
Activity (Homo sapiens [10]): inactive
inhibition (Homo sapiens [11]): inactive
pKd (Spindlin-2B): 5.77 to 6.77
pKd (Spindlin-4): 5.77 to 6.77
Structure (SMILES): COc1c(CN)cc(CN)cc1OCCCN1Cc2ccccc2C1
Activity (HEK-293T): Non-Toxic
Activity (C2C12): Non-Toxic
Activity (HFF-1): Non-Toxic
